Experiments:
[1] = DPPH scavenging activity test (antioxidative effect); format: biochemical; settings: concentration of 0.5% or more; 30 minutes, absorbance 517 nm; compared with ascorbic acid (AA)
Method: The color change of the DPPH radical is distinctive as it reacts with a reagent having excellent antioxidative ability. R1, ascorbic acid (AA), and methyl paraben (MTP) each were dissolved at different concentrations in methanol. The thus obtained samples (100 μl) each were dissolved at a concentration of 0.006% in methanol, and mixed with 100 μl of the DPPH radical solution to prepare a total volume of 200 μl, followed by reaction in a light-blocked space for 30 minutes. After completion of the reaction, the absorbance of each mixture was measured at 517 nm to determine antioxidative ability of each sample.

[2] = tested on: Pseudomonas aeruginosa; assay: Preservative power test (challenge test), lotion dosage form; format: cell-based; settings: 0.5%
Method: (§1) In order to investigate the possibility of R1 as a preservative compared with methyl paraben, the preservative power test was conducted by measuring the sterilizing power of a toner dosage form and a lotion dosage form of R1 against gram positive pathogens (Staphylococcus aureus and Bacillus cereus) and gram negative pathogens (Pseudomonas aeruginosa and Escherichia coli). The preservative power test was conducted on the basis of the U.S. Cosmetics, Toiletry, and Fragrance Association (CTFA), and the basis is that a particular material has a possibility as a preservative if the particular material in dosage forms of a toner or lotion kills 99.9% of inoculated bacteria within 7 days.
(§2) R1 and methyl paraben, which were dissolved in methanol, each were added to the toner dosage form, so that the final concentration of each of R1 and the methyl paraben had 0% and 0.5%, and the S. aureus, B. cereus, P. aeruginosa, and C. albicans cultures each were inoculated in each container. The number of inoculated bacterial cells was 106-107 colony forming unit (CFU)/ml. While the bacteria-inoculated lotions were kept at room temperature, each lotion was diluted immediately, one day, three days, five days, and seven days after the inoculation of bacteria, and 200 μl of the lotions inoculated with S. aureus, B. cereus, and P. aeruginosa each were as plated on LB agar plate, and 200 μl of the lotion inoculated with C. albicans was plated on YPD agar plate. The death or not of bacteria was checked by calculating the number of cells and then comparing the calculated number with the number of initially inoculated bacteria. As control, only methanol was added to the lotion dosage form, and the bacteria culture was inoculated, followed by repeated tests.

[3] = tested on: Bacillus cereus; assay: as above; format: cell-based; settings: 0.5%
Method: as §1, §2

[4] = tested on: Staphylococcus aureus; assay: as above; format: cell-based; settings: 0.5%
Method: as §1, §2

[5] = tested on: Candida albicans; assay: as above; format: cell-based; settings: 0.5%
Method: as §1, §2

[6] = tested on: S. aureus; assay: Antibiotic activity of R1 fractions and rhamnolipids (clear zone on agar plate); format: cell-based, Staphylococcus aureus; settings: concluded from fraction activity and LC/MS peaks 1 and 2
Method: 1 mg of a mixture state of R1 extracted from a microorganism (P. aeruginosa) culture was dissolved in methanol, and then injected in the sep-Pak vac 1cc tc18 cartridge column. After that, the column was washed with solvent A, and solvent B as a development solvent was injected thereinto. Solvent B with different concentrations was injected into the column, and the fractions passing through the column were collected, and named fraction 1, fraction 2, fraction 3, fraction 4, fraction 5, and fraction 6. The different concentrations of solvent B injected to the column were 50%, 55%, 60%, 65%, 70%, and 75%.
Each of the obtained fractions was dried, and then dissolved at a concentration of 10 mg/ml in methanol. 20 μl of each of the fractions dissolved in methanol was dropped on an agar plate plated with the S. aureus culture, and cultured at 37° C. for 18 hours. After 18 hours, the clear zone generated on the agar plate was observed.

## COC(=O)c1ccc(O)cc1 [MTP, methyl paraben]
[1]
  antioxidative effect (DPPH scavenging activity): significantly low antioxidative effect
[2]; Day 0
  survival rate of inoculated bacteria: 100%
[2]; Day 1
  survival rate of inoculated bacteria: 0%
[2]; Day 3
  survival rate of inoculated bacteria: 0%
[2]; Day 5
  survival rate of inoculated bacteria: 0%
[2]; Day 7
  survival rate of inoculated bacteria: 0%
[3]; Day 0
  survival rate of inoculated bacteria: 100%
[3]; Day 1
  survival rate of inoculated bacteria: 0.12%
[3]; Day 3
  survival rate of inoculated bacteria: 0.06%
[3]; Day 5
  survival rate of inoculated bacteria: 0.02%
[3]; Day 7
  survival rate of inoculated bacteria: 0.01%
[4]; Day 0
  survival rate of inoculated bacteria: 100%
[4]; Day 1
  survival rate of inoculated bacteria: 0%
[4]; Day 3
  survival rate of inoculated bacteria: 0%
[4]; Day 5
  survival rate of inoculated bacteria: 0%
[4]; Day 7
  survival rate of inoculated bacteria: 0%
[5]; Day 0
  survival rate of inoculated bacteria: 100%
[5]; Day 1
  survival rate of inoculated bacteria: 0%
[5]; Day 3
  survival rate of inoculated bacteria: 0%
[5]; Day 5
  survival rate of inoculated bacteria: 0%
[5]; Day 7
  survival rate of inoculated bacteria: 0%

## CCCCCCCC(CC(=O)O)OC(=O)CC(CCCCCCC)O[C@@H]1O[C@@H](C)[C@H](O)[C@@H](O)[C@H]1O (some centres unmarked) [Rha-C10-C10]
[6]
  active ingredient having antibacterial activity: active ingredients having antibacterial activity

## CCCCCCCC(CC(=O)O)OC(=O)CC(CCCCCCC)OC1OC(C)C(O)C(O)C1OC1OC(C)C(O)C(O)C1O (stereo not drawn) [Rha-Rha-C10-C10]
[6]
  active ingredient having antibacterial activity: active ingredients having antibacterial activity
